Source: patent publication US7033808B2, “Carbonyl reductase, gene thereof and method of using the same” (Kaneka Corporation, priority 2000, dated 2006)
Read-outs that look alike come from different tables or passages of the source.

Test system: BRD
Assay: BRD reducing activity with added metal ions and inhibitors
Format: biochemical, Micrococcus luteus IFO 13867
[1] = addition level 0.1 mM, activity without addition = 100%
[2] = addition level 1 mM, activity without addition = 100%
[3] = addition level 0.01 mM, activity without addition = 100%

`O=C1NC(=O)C(c2ccccc2)(c2ccccc2)N1` [5,5-Diphenylhydantoin] was tested. Which Relative activity (addition level 0.5 mM, activity without addition = 100%) did it give?
Its Relative activity is 99%.

With `O=C(O)c1cc[c]([Hg][Cl])cc1` [PCMB] as the molecule, how does the Relative activity [1] read?
Its Relative activity is 78%.

With `O=C(O)CN(CCN(CC(=O)O)CC(=O)O)CC(=O)O` [EDTA] as the molecule, how does the Relative activity read?
The Relative activity was 88%.

How did the Relative activity turn out when `O=C(O)CI` [Iodoacetic acid] was run?
The Relative activity was 89%.

`O=S(=O)(F)Cc1ccccc1` [PMSF, phenylmethylsulfonyl fluoride] was tested. Which Relative activity [2] did it give?
Its Relative activity is 89%.

With `O=S(=O)([O-])[O-].[Zn+2]` [ZnSO4] as the molecule, how does the Relative activity [2] read?
The Relative activity was 99%.

With `[Cl][Mn][Cl]` [MnCl2] as the molecule, how does the Relative activity [2] read?
The Relative activity was 89%.

Which Relative activity [3] does the source give for `O=C(O)c1cc(SSc2ccc([N+](=O)[O-])c(C(=O)O)c2)ccc1[N+](=O)[O-]` [DTNB] here?
The Relative activity was 93%.

For `[Cl-].[Cl-].[Co+2]` [CoCl2], which Relative activity is on record?
The Relative activity was 99%.

Which Relative activity [2] does the source give for `CCN1C(=O)C=CC1=O` [NEM] here?
The Relative activity was 94%.

`O=S(=O)([O-])[O-].[Mg+2]` [MgSO4] was tested. Which Relative activity [2] did it give?
Its Relative activity is 99%.

What does the source list for `O=S(=O)([O-])[O-].[Cu+2]` [CuSO4]?
Relative activity [1]: 6%; Relative activity [2]: 5%; Inhibition of the enzyme (result in words): inhibited

Which Relative activity [2] does the source give for `c1cnc2c(c1)ccc1cccnc12` [1,10-Phenanthroline] here?
The Relative activity was 90%.

How did the Relative activity [3] turn out when `O=c1c(O)c(-c2ccc(O)c(O)c2)oc2cc(O)cc(O)c12` [Quercetin] was run?
Its Relative activity is 94%.
